Assay results from patent US20050215543A1, “Methods of treating HIV infection” (priority 2004, published 2005).

How the values were obtained:
[1] = system: HIV-1 LAI; test: microbe, parasite or virus in culture; conditions: for Combination Indices at % HIV Inhibition (Confidence Interval) 50%: 50% HIV inhibition; for Combination Indices at % HIV Inhibition (Confidence Interval) 50% / Combination Indices at % HIV Inhibition (Confidence Interval) 75% / Combination Indices at % HIV Inhibition (Confidence Interval) 90%: 95% CI in parenthesis; for Combination Indices at % HIV Inhibition (Confidence Interval) 75%: 75% HIV inhibition; for Combination Indices at % HIV Inhibition (Confidence Interval) 90%: 90% HIV inhibition
[2] = system: uninfected cells; test: Cytotoxicity assay of drug combinations, uninfected cells, XTT assay; assay type: cell-based; conditions: combination with Compound 1 at the highest concentrations tested, 6 days
Procedure: Drug Susceptibility and Cytotoxicity Assays. […] Each drug ratio consisted of an array of 3-fold serial dilutions, and was performed in quadruplicate. The plates were incubated at 37° C./5% CO2. […] On day-five post-infection, 20 μl from each well was harvested and quantitated by a reverse transcriptase (RT) assay, or in samples involving non-nucleoside RT inhibitors, an MTS assay. The PM-1 cells infected with HIV-1 Bal and used for studying the combinations with CCR5 inhibitors were incubated for six days. On day-six post-infection, 20 μl from each well was harvested, 20- and 50-fold diluted and quantitated by p24 assay. Cytotoxicity assays were performed using uninfected cells, exposed to the same drug combinations, and incubated for six days. Cell viability was determined by an XTT assay. The CC50 values were calculated by using the exponential form of the median effect equation as mentioned below for calculation of EC50.

[3] = combination with Compound 1, EC50 ratio 1:1 (Compound 1:comparator)
[4] = combination with Compound 1, EC50 ratio 1:1
[5] = combination with Compound 1, EC50 ratio 1:2.5
[6] = combination with Compound 1, EC50 ratio 2.5:1

CON(Cc1ccc(F)cc1)C(=O)C=C(O)C(=O)O [Compound 2, 3-[(4-fluorobenzyl)methoxycarbamoyl]-2-hydroxyacrylic acid]
EC50 ([1]; Human immunodeficiency virus 1, MT2, 120 h): 39 nM | Combination Indices at % HIV Inhibition (Confidence Interval) 50% [1, 3]: 0.92 (0.77, 1.06) | Combination Indices at % HIV Inhibition (Confidence Interval) 75% [1, 4]: 0.90 (0.70, 1.10) | Combination Indices at % HIV Inhibition (Confidence Interval) 90% [1, 4]: 0.89 (0.58, 1.21) | Combination Indices at % HIV Inhibition (Confidence Interval) 50% [1, 5]: 0.71 (0.60, 0.82) | Combination Indices at % HIV Inhibition (Confidence Interval) 75% [1, 5]: 0.66 (0.51, 0.80) | Combination Indices at % HIV Inhibition (Confidence Interval) 90% [1, 5]: 0.61 (0.40, 0.82) | Combination Indices at % HIV Inhibition (Confidence Interval) 50% [1, 6]: 0.41 (0.36, 0.47) | Combination Indices at % HIV Inhibition (Confidence Interval) 75% [1, 6]: 0.41 (0.33, 0.48) | Combination Indices at % HIV Inhibition (Confidence Interval) 90% [1, 6]: 0.40 (0.28, 0.52) | cytotoxicity of the drug combination [2]: No significant cytotoxicity

enfuvirtide
Combination Indices at % HIV Inhibition (Confidence Interval) 50% [1, 3]: 0.53 (0.46, 0.59) | Combination Indices at % HIV Inhibition (Confidence Interval) 75% [1, 4]: 0.51 (0.42, 0.59) | Combination Indices at % HIV Inhibition (Confidence Interval) 90% [1, 4]: 0.57 (0.42, 0.72) | Combination Indices at % HIV Inhibition (Confidence Interval) 50% [1, 5]: 0.27 (0.21, 0.32) | Combination Indices at % HIV Inhibition (Confidence Interval) 75% [1, 5]: 0.32 (0.22, 0.42) | Combination Indices at % HIV Inhibition (Confidence Interval) 90% [1, 5]: 0.43 (0.22, 0.64) | Combination Indices at % HIV Inhibition (Confidence Interval) 50% [1, 6]: 0.41 (0.30, 0.51) | Combination Indices at % HIV Inhibition (Confidence Interval) 75% [1, 6]: 0.57 (0.37, 0.78) | Combination Indices at % HIV Inhibition (Confidence Interval) 90% [1, 6]: 0.90 (0.36, 1.44) | EC50 ([1]; single drug, MT-2 cells, HIV-1 LAI, MOI 0.005, 5 days, RT assay): 3 nM | cytotoxicity of the drug combination [2]: No significant cytotoxicity
